Entries after “also recorded” stand apart in the source; their conditions may differ. Where no end group is shown, it is not given here. [ ]: non-standard residue; d: D form.
What was measured:
[1] = tested on: C57/BL6 mice given intranasal LPS (animal model of ARDS and sepsis); experiment: Neutrophil infiltration in BAL after intranasal peptide, LPS-induced mouse model of ARDS and sepsis (FIG. 1); assay type: in vivo; conditions: repeated dose co-administered with LPS (10 μg/mouse), BAL 6 hours later, n=5
Procedure: FIG. 1 is a graphical representation showing the percentage of neutrophils (y-axis) in bronchoalveolar lavage (BAL) in 8-week to 12-week old C57/BL6 mice receiving various treatments indicated by numbers on the x-axis as follows:
Columns 1-4 (open bars): Animals (n=5 per group) received either no LPS (column 1) or a dose of LPS intranasally (10 μg/mouse) and BAL was performed 1 hour (column 2), 4 hours (column 3) or 6 hours (column 4) later. No peptide was administered to these animals.
Columns 5-7 (filled bars): Animals (n=5 per group) received an intranasal dose of 10 mg/kg body weight of retroinverted peptide analog D-PYC36-TAT (SEQ ID NO: 106; column 5) or D-PYC35-TAT (SEQ ID NO: 104; column 6), or 5 mg/kg body weight of retroinverted peptide analog D-PYC38-TAT (SEQ ID NO: 108; column 7), by a repeated dose of the same peptide analog for each group co-administered intranasally with LPS (10 μg/mouse) and BAL was performed 6 hours later.
Column 8 (hatched bars): Animals (n=5) received an intranasal dose of 10 mg/kg body weight of a scrambled version of SEQ ID NO: 106 designated D-PYC36scrambled-TAT followed 1 hour later by a repeated dose of the same peptide analog co-administered intranasally with LPS (10 μg/mouse) and BAL was performed 6 hours later.
BAL was performed on the animals using 1 ml GKN/0.2% BSA. Cell counts were obtained to determine total cell numbers and differential counts were obtained on cytocentrifuge slide preparations to elucidate the percentage neutrophils in BAL.
8-12 week old C57/B16 mice were purchased from the Animal Resource Center, Murdoch University, Western Australia and used for all experiments. All experiments were approved by the necessary institutional animal ethics committees and were performed in accordance with the National Health and Medical Research Council (NHMRC) Australian Code of Practice for the Care and Use of Animals for Scientific Purposes. […]

[2] = tested on: female C57/BL6 mice given intranasal LPS (animal model of ARDS and sepsis); experiment: Neutrophil infiltration in BAL after intravenous peptide injection, LPS-induced mouse model of ARDS and sepsis (FIG. 2); assay type: in vivo; conditions: intravenous 10 mg/kg 20 min before intranasal LPS (40 μg/mouse), repeat injections 2 and 4 hours post-LPS, BAL 6 hours after LPS
Procedure: FIG. 2 is a graphical representation showing the percentage of neutrophils (y-axis) in bronchoalveolar lavage (BAL) in 8-week to 10-week old female C57/BL6 mice receiving various treatments indicated by numbers on the x-axis as follows:
Column 1 (naïve): Animals received no LPS and BAL was performed 6 hours later. No peptide was administered to these animals.
Column 2 (nil): Animals received an intranasal dose of E. coli LP (40 μg/mouse) and BAL was performed 6 hours later.
Column 3 (D36-TAT x1): Animals received a single intravenous injection of 10 mg/kg body weight of retroinverted peptide analog D-PYC36-TAT (SEQ ID NO: 106) followed 20 min later by an intranasal dose of LPS (40 μg/mouse). BAL was performed 6 hours after LPS administration.
Column 4 (D36-TATscr x1): Animals received a single intravenous injection of 10 mg/kg body weight of a peptide having a scrambled sequence relative to the retroinverted peptide analog D-PYC36-TAT (SEQ ID NO: 106) followed 20 min later by an intranasal dose of LPS (40 μg/mouse). BAL was performed 6 hours after LPS administration. […]

[3] = intranasal 10 mg/kg body weight 1 hour before LPS

Substance | percentage of neutrophils in bronchoalveolar lavage (BAL) [1, 3] | percentage of neutrophils in bronchoalveolar lavage (BAL) [2] | percentage of neutrophils in bronchoalveolar lavage (BAL) ([1]; intranasal 5 mg/kg body weight 1 hour before LPS)
SEQ ID NO: 104: retroinverted peptide analog of SEQ ID NO: 57 fused to the TAT 10-mer with a linking glycine; AP-1 signaling inhibitor ([dR][dE][dR][dK][dS][dS][dS][dE][dI]GG[dS][dR][dI][dS][dQ][dY][dA]G[dR][dR][dR][dQ][dR][dR][dK][dK][dR]G; also: retro-inverso) | significantly reduced; also recorded: significantly-reduced |  | 
SEQ ID NO: 106: retroinverted peptide analog of SEQ ID NO: 59 fused to the TAT 10-mer with a linking glycine; AP-1 signaling inhibitor ([dP][dK][dI][dS][dQ][dY]G[dQ][dR][dR][dR]G[dQ][dL]GG[dR][dR][dR][dQ][dR][dR][dK][dK][dR]G) | significantly reduced; also recorded: significantly-reduced | significantly reduced; also recorded: significantly-reduced | 
SEQ ID NO: 108: retroinverted peptide analog of SEQ ID NO: 61 fused to the TAT 10-mer with a linking glycine; AP-1 signaling inhibitor ([dR][dH][dA][dP][dL][dA][dR]G[dS][dW][dR]G[dQ][dP][dQ][dQ]G[dP][dQ][dR][dR]G[dQ][dL]GG[dR][dR][dR][dQ][dR][dR][dK][dK][dR]G) |  |  | significantly reduced; also recorded: significantly-reduced

From US8822409B2, “Compositions and uses thereof for the treatment of acute respiratory distress syndrome (ARDS) and clinical disorders associated with therewith” (Phylogica Limited, priority 2007, dated 2014)
